Measurements from patent US9375436B2, “Androgen treatment in females” (priority 2004, dated 2016).

Key:
[1] = test system: women with diminished ovarian reserve; assay: Miscarriage rates in DHEA pregnancies at two centers versus 2004 national US IVF data (Example 8); format: in vivo, human
Experimental: Based on reported clinical experiences, the indications for DHEA supplementation have changed over the years, with women above age 40 since 2007 receiving routine supplementation, and younger women receiving supplementation only selectively.
DHEA supplementation involves the use of pharmaceutical grade micronized DHEA at a dosage of about 25 mg, three times daily. Patients are on DHEA supplementation for at least about two months prior to oocyte retrieval. This period of minimal pretreatment is based on the recognition that at two months pregnancy curves between DHEA pretreated and control patients statistically diverge. DHEA is maintained until pregnancy is established and is discontinued with positive pregnancy test.
Toronto West Fertility Associates, in Toronto, Canada, started utilizing DHEA independent of the use of DHEA at the Center for Human Reproduction (CHR) in New York, N.Y. In December of 2007, Toronto's medical director forwarded a detailed electronic record of the center's all-inclusive DHEA experience for analysis to CHR. This study, therefore, reports on the miscarriage rate of pregnancies, independently established under DHEA supplementation at both fertility centers, and compares these rates, age-stratified, to miscarriage rates reported in a national IVF data base in the U.S. for the year 2004. The definitions of clinical pregnancy, and of miscarriage, used herein follow the reporting requirements of this national data base, defining a clinical pregnancy as a pregnancy, confirmed by ultrasound examination.
Miscarriage rates of DHEA supplemented patients were compared with national IVF outcome statistics, reported annually under Federal mandate by the Centers for Disease Control. The data utilized for this study reflect 2004 United States national statistics. Pregnancy and miscarriage rates at the two centers were pooled after confirmation of homogeneity of variance. Common odds ratios of the pooled miscarriage rates among age stratified pregnant patients were compared between the pooled rates and the 2004 US national rates utilizing the Mantel-Haenszel common odds ratio. Statistical analyses were performed using SPSS Windows, standard version 15.0.
DHEA supplementation: After approval by the center's institutional review board, the Center for Human Reproduction (CHR) in New York City has been utilizing DHEA supplementation in women with diminished ovarian reserve since 2004. Based on reported clinical experiences, the indications for such supplementation have changed over the years: In initial stages, only older women, above age 42, were supplemented and only if they had failed at least one IVF cycle and less than 4 oocytes had been retrieved in confirmation of ovarian resistance to stimulation. By mid-2005, indications were expanded to all women above age 40 with evidence of ovarian resistance and a history of one failed prior IVF cycle. […] By mid-2006 FSH baseline criteria were changed from absolute FSH elevations to elevations in age-specific FSH levels.
DHEA supplementation in all patients involves oral, pharmaceutical grade micronized medication at a dosage of 25 mg, three times daily (TID). Only morbidly obese women receive an increased daily dosage of 100 mg and no such women were involved in this study. […] Limited patient volume and funding sources have prevented dose response studies and 25 mg DHEA TID daily has, therefore, remained the only standard treatment dosage. Patients receive at least two months of DHEA supplementation prior to oocyte retrieval, unless they conceive spontaneously during that time period. This minimum pretreatment period is based on the recognition that at two months pregnancy curves between DHEA pretreated and control patients statistically diverge. DHEA is maintained until pregnancy, and is discontinued with second positive pregnancy test. […]

[2] = test system: women with diminished ovarian reserve (DOR); assay: IVF cycle and PGD outcomes in DHEA-treated women with DOR (Example 4); format: in vivo, human
Excerpt: All the IVF cycles performed at the Center for Human Reproduction (CHR) in New York, N.Y., between 2004 and 2006 for cycles performed in women with a diagnosis of DOR were retroactively reviewed. The study population, involving 27 IVF cycles, was selected amongst those cycles which, in addition, had undergone preimplantation genetic diagnosis (PGD).
The diagnosis of DOR was made based on previously reported abnormally high, age stratified baseline FSH levels. In practical terms, this meant that a diagnosis of DOR was reached if baseline FSH levels exceeded the 95% confidence interval of age appropriate levels, independent of prior IVF retrievals and/or oocyte numbers. At, or above age 43, all patients were considered to suffer from DOR, independent of baseline FSH level.
If under age 40, DHEA was given for up to four months prior to IVF. Women of older age received DHEA, if possible, for at least two months.
For the purpose of this analysis, a patient had to be for at least one month (30 days) on DHEA supplementation in order for the IVF cycle to be considered amongst DHEA-treated cycles. All other DOR patients were considered to have received no DHEA treatment. Following this definition, 19 DOR patients had received no DHEA supplementation, and eight had.
All women with DOR, independent of DHEA supplementation, were stimulated with identical protocols, as previously reported in detail elsewhere. In short, they, without exception, received a microdose agonist protocol with maximal goandotropin stimulation of 600 IU to 750 IU daily, with preponderance of FSH, and a smaller daily amount of human menopausal gonadotropin (hMG).
PGD was performed in routine fashion, as also previously described in detail, and involved the analysis of chromosomes X, Y, 13, 16, 18, 21 and 22 by fluorescence in situ hybridization (FISH) on day three after fertilization. Embryo transfer occurred on day five after fertilization.
Patients were represented by only one cycle outcome in each group. If patients had undergone more than one cycle, either with, or without, DHEA supplementation, only their latest cycle was included in the analysis. Three patients underwent both a pre-DHEA and a post-DHEA cycle and in those cases both cycles were included in the analysis.
Statistical analysis was performed using SPSS for windows, standard version 10.0.7. Data are presented as mean±one standard deviation, unless otherwise noted, and statistical differences between the two study groups were tested by Chi-square and (two-sided) Fisher's Exact Test, where applicable, with significance being defined as p<0.05.

[3] = 3 women with DHEA and no-DHEA cycles, DHEA-treated cycle
[4] = DHEA-treated cycles n = 8, PGD by FISH
[5] = DHEA-treated cycles, at least one euploid embryo for transfer

Question: How did the “clinical miscarriage rate, Toronto” value ([1]; 33 DHEA pregnancies, five miscarriages) turn out when `C[C@]12CC[C@H](O)CC1=CC[C@@H]1[C@@H]2CC[C@]2(C)C(=O)CC[C@@H]12` [DHEA, Dehydroepiandrosterone] was run?
Answer: 15.2%

Question: What about the “clinical miscarriage rate, New York” value ([1]; 40 DHEA pregnancies, six miscarriages) of the same molecule?
Answer: 15.0%

Question: And the “Misc. Rate (%)” value ([1]; NY, age 35-37)?
Answer: 0.0%

Question: And the Miscarriages ([1]; NY, age 35-37, 5 pregnancies)?
Answer: 0

Question: And the “Misc. Rate (%)” value ([1]; NY, age 38-40)?
Answer: 0.0%

Question: What about the Miscarriages ([1]; NY, age 38-40, 6 pregnancies) of the same molecule?
Answer: 0

Question: What about the “Misc. Rate (%)” value ([1]; NY, age 41-42) of the same molecule?
Answer: 20.0%

Question: And the Miscarriages ([1]; NY, age 41-42, 10 pregnancies)?
Answer: 2

Question: What about the “Misc. Rate (%)” value ([1]; NY, age <35) of the same molecule?
Answer: 10.0%

Question: What about the Miscarriages ([1]; NY, age <35, 10 pregnancies) of the same molecule?
Answer: 1

Question: And the “Misc. Rate (%)” value ([1]; NY, age >42)?
Answer: 33.3%

Question: And the Miscarriages ([1]; NY, age >42, 9 pregnancies)?
Answer: 3

Question: And the “Misc. Rate (%)” value ([1]; TO, age 35-37)?
Answer: 10.0%

Question: And the Miscarriages ([1]; TO, age 35-37, 10 pregnancies)?
Answer: 1

Question: What about the “Misc. Rate (%)” value ([1]; TO, age 38-40) of the same molecule?
Answer: 23.1%

Question: And the Miscarriages ([1]; TO, age 38-40, 13 pregnancies)?
Answer: 3

Question: What about the Miscarriages ([1]; TO, age 41-42, 0 pregnancies) of the same molecule?
Answer: 0

Question: And the “Misc. Rate (%)” value ([1]; TO, age <35)?
Answer: 14.3%

Question: What about the Miscarriages ([1]; TO, age <35, 7 pregnancies) of the same molecule?
Answer: 1

Question: And the “Misc. Rate (%)” value ([1]; TO, age >42)?
Answer: 0.0%

Question: And the Miscarriages ([1]; TO, age >42, 3 pregnancies)?
Answer: 0

Question: What about the “Misc. Rate (%)” value ([1]; TOTAL both centers, age 35-37) of the same molecule?
Answer: 6.7%

Question: And the “Misc. Rate (%)” value ([1]; TOTAL both centers, age 38-40)?
Answer: 15.8%

Question: And the “Misc. Rate (%)” value ([1]; TOTAL both centers, age 41-42)?
Answer: 20.0%

Question: What about the “Misc. Rate (%)” value ([1]; TOTAL both centers, age <35) of the same molecule?
Answer: 11.8%

Question: What about the “Misc. Rate (%)” value ([1]; TOTAL both centers, age >42) of the same molecule?
Answer: 25.0%

Question: And the “reduction in miscarriage risk” value ([1]; first statistical model (age-stratified odds ratio))?
Answer: approximately 50%

Question: What about the “decline in miscarriages, depending on statistical method” value ([1]; versus national US IVF pregnancies) of the same molecule?
Answer: 50-80%

Question: What about the “Aneuploid Embryos” value [2, 3] of the same molecule?
Answer: 2.0 ± 1.8

Question: And the “Oocytes ± SD” value [2, 3]?
Answer: 6.0 ± 4.8

Question: And the “Total Embryos ± SD” value [2, 3]?
Answer: 4.0 ± 2.7

Question: And the “Embryos ± SD (total number)” value ([2]; DHEA-treated cycles n = 8)?
Answer: 9.1 ± 7.3

Question: What about the “Oocytes ± SD” value ([2]; DHEA-treated cycles n = 8) of the same molecule?
Answer: 10.4±7.3

Question: And the “Peak Estradiol ± SD” value ([2]; DHEA-treated cycles n = 8, 25 mg TID at least one month)?
Answer: 2310.3 ± 1108.1 pg/mL

Question: And the “% Aneuploid ± SD” value [2, 4]?
Answer: 55.9 ± 37.8%

Question: What about the “% Euploid ± SD” value [2, 4] of the same molecule?
Answer: 44.1 ± 37.8%

Question: What about the “n Aneuploid ± SD” value [2, 4] of the same molecule?
Answer: 4.4 ± 3.0

Question: And the “n Euploid ± SD” value [2, 4]?
Answer: 2.1 ± 1.4

Question: What about the “Patients with euploid embryos (%)” value [2, 5] of the same molecule?
Answer: 100%

Question: What about the “Patients with euploid embryos (n/N)” value [2, 5] of the same molecule?
Answer: 8/8
